Two compounds from paper PMC6708471 (Cell calcium, 2019) can be followed below.

For experiment [1], the target named is T1, calmodulin (CaM) (Homo sapiens, UniProt P0DP25). The experiment in a line: […]-1H HSQC NMR titration. It is filed as binding.
The target of experiment [2] is T1, calmodulin (CaM). Description: X-ray crystal structure. The class given is biochemical.

Take `COc1ccc(S(=O)(=O)Nc2ccccc2CN(C)C/C=C/c2ccc(Cl)cc2)cc1` [KN92]: on calmodulin (CaM) [1], the “15N-1H HSQC NMR titration (intermediate exchange, modest affinity)” value is on record as “We found that KN92 also affects the CaM NMR spectrum as many of the cross peaks disappear”. A word on the EC50: it is the midpoint of the concentration-response curve. The low end stands for greater potency, the high end for weaker potency. With `COc1ccc(S(=O)(=O)N(CCO)c2ccccc2CN(C)C/C=C/c2ccc(Cl)cc2)cc1` [KN93], the EC50 on calmodulin (CaM) [2] stood at 5.1 ± 1.4 µM.
